How the values were obtained:
[1] = patients with established cardiovascular disease and eGFR<60 mL/min/1.73 m^2; monotherapy; p=0.04 vs. baseline (Kulikowski et al 2017); cited from earlier work
[2] = BETonMACE Phase 3 trial post-hoc analysis: eGFR (Cockcroft-Gault, serum creatinine) from baseline to last visit on treatment; assay type: in vivo, human
Protocol: Apabetalone (RVX-208) was evaluated in a recently completed clinical Phase 3 trial (BETonMACE; NCT02586155) for the effect on MACE in type 2 diabetes patients with low HDL cholesterol (below 40 mg/dL for males and below 45 mg/dL for females) and a recent acute coronary syndrome (ACS) (preceding 7-90 days). All patients received high intensity statin treatment or maximum tolerated statin treatment, which was 20-40 mg daily or a maximum daily dose of 40 mg for rosuvastatin or 40-80 mg daily or a maximum daily dose of 80 mg for atorvastatin.
Patients (n=2425) with ACS in the preceding 7 to 90 days, with type 2 diabetes and low HDL cholesterol (≤40 mg/dl for men, <45 mg/dl for women), receiving intensive or maximum-tolerated therapy with atorvastatin or rosuvastatin, were assigned in double-blind fashion to receive apabetalone 100 mg orally twice daily or matching placebo. Baseline characteristics include female sex (25%), myocardial infarction as index ACS event(74%), coronary revascularization for index ACS (76%), treatment with dual anti-platelet therapy (87%) and renin-angiotensin system inhibitors (91%), median LDL cholesterol 65 mg per deciliter, and median HbA1c 7.3%. The primary efficacy measure is time to first occurrence of cardiovascular death, non-fatal myocardial infarction, or stroke. The study enrolled 2425 patients and the MACE outcome population consisted of 2418 patients.
In the BETonMACE clinical study, a total of N=298 patients (N=150 in RVX-208 treatment group and N=148 in placebo treatment group) were administered an SGLT2 inhibitor (empagliflozin, dapagliflozin, or canagliflozin) in addition to RVX-208 with specified statin therapy (atorvastatin and rosuvastatin) and other guideline-defined treatments. Specifically, a total of 150 patients received both RVX-208 and an SGLT2 inhibitor; a total of 148 received an SGLT2 inhibitor, but no RVX-208; a total of 1062 received RVX-208, but no SGLT2 inhibitor; a total of 1058 received neither RVX-208 or an SGLT2 inhibitor.
Patients who were randomized and received at least one dose of SGLT2 treatment while actively receiving study drug (RVX-208 or placebo) were counted as those receiving a combination of SGLT2 treatment with either RVX-208 or placebo. Patients receiving more than one drug therapy within the SGLT2 inhibitor class were counted only once based upon whichever drug therapy patients continued taking at the end of treatment with study drug (RVX-208 or placebo). In cases where patients were receiving more than one drug therapy within the SGLT2 inhibitor class at the end of treatment with study drug, whichever SGLT2 inhibitor therapy was received for longer was counted.
Estimated glomerular filtration rate (eGFR) was calculated by the central lab using serum creatinine values and the Cockcroft-Gault formula. Serum creatinine was collected as part of the chemistry panel at the following time points: baseline, week 24, week 52, week 76, week 100, and last visit on treatment (LVT). The Cockcroft-Gault formula requires the input of an individual's age, sex, and weight. The last visit on treatment (LVT) timepoint represented the longest study exposure duration for patients receiving RVX-208 or placebo with and without SGLT2 inhibitors and is the focus of this analysis. The median time to LVT (and study drug exposure) for patients with a baseline and LVT measurements for eGFR administered an SGLT2 inhibitor (N=298) was 742 days (2.03 years). For the patients treated with a SGLT2 inhibitor and RVX-208 (N=150), the median time to LVT was 748 days (2.05 years) and for the patients treated with a SGLT2 inhibitor and received placebo (N=148), the median time to LVT was 734 days (2.01 years). No statistical difference was observed between the duration of study drug exposure, indicating a balance was observed between treatment groups. At the LVT timepoint, a total of N=121 patients in the apabetalone treatment group and N=122 patients in the placebo group had eGFR measurements. […]

[3] = BETonMACE, T2DM patients with a recent ACS (Ray et al. 2020); cited from earlier work

COc1cc(OC)c2c(=O)[nH]c(-c3cc(C)c(OCCO)c(C)c3)nc2c1 [RVX-208, 2-(4-(2-hydroxyethoxy)-3,5-dimethylphenyl)-5,7-dimethoxyquinazolin-4(3H)-one]
increase in eGFR [1]: 3.4%
effect on eGFR / renal function ([2]; BETonMACE post-hoc, T2DM patients with a recent ACS): not able to increase median or mean eGFR levels
median eGFR at last visit on treatment (LVT) ([2]; T2DM patients with recent ACS, on statin, RVX-208 100 mg orally twice daily where given, at LVT (median about 2 years)): 96 mL/min
median eGFR at baseline ([2]; T2DM patients with recent ACS, on statin, at baseline): 97 mL/min
median change of eGFR from baseline to LVT ([2]; T2DM patients with recent ACS, FIG. 3): −3.2 mL/min/1.73 m^2
mean change of eGFR from baseline to LVT ([2]; T2DM patients with recent ACS, FIG. 4): −3.3 mL/min/1.73 m^2
median eGFR slope from baseline to LVT ([2]; eGFR difference baseline to LVT divided by number of treatment days, monotherapy groups): −0.004
effect on eGFR versus placebo [3]: did not demonstrate the ability to statistically improve eGFR versus placebo

Reference: patent publication US20230381178A1, “METHODS FOR IMPROVING RENAL FUNCTION WITH A COMBINATION OF A BET BROMODOMAIN INHIBITOR AND A SODIUM DEPENDENT GLUCOSE TRANSPORT 2 INHIBITOR” (Resverlogix Corp., priority 2020, published 2023)
